Experimental data as given in patent publication US10508099B2, “Isoquinolin-3-yl carboxamides and preparation and use thereof” (Samumed, LLC, priority 2016, dated 2019).
Like-named read-outs stand apart in the source and are kept apart here. Each block holds one molecule with its values, some of them ahead of it.

Key:
IL-6, BV-2 cells = assay: Secreted cytokines in Lipopolysaccharide-stimulated BV-2 mouse microglial cells: IL-6; assay type: cell-based; settings: LPS 250 ng/mL for 5 h
Protocol: (§1) Representative compounds were screened using the cell-based assay procedure for secreted cytokines in a Lipopolysaccharide-stimulated mouse glial cell line described below.
(§2) BV-2 cells (mouse microglial cells) were cultured in 1:1 DMEM medium supplemented with 10% FBS, and 1% penicillin/streptomycin.
(§3) BV-2 cells are plated at 35,000 cells/well in a volume of 100 ul for at least 4 hours before compounds are added. DMSO-resuspended compounds were first dispensed in a 96 well plate and serial diluted from 10 μM to 4.6 nM final concentration in medium. Compounds were added to cells overnight. Two hundred fifty ng per milliliter of lipopolysaccharide (Escherichia coli 055:B5, SIGMA) was added for 5 h. Supernatant is removed and saved for further cytokine detection. The original plates with seeded cells were tested for cytotoxicity by measure of adenosine triphosphate (ATP) release by adding CellTiter-Glo® diluted 1:4 in distilled water (G7573, Promega) and transferring lysed cells to a completely black 96-well plate to be read with the Cytation3. Supernatant was then diluted 1:2 with a diluent from V-PLEX cytokine Kit and directly tested for the secreted cytokines TNFα, IL-6 and KC-GRO using electrochemiluminescence (Meso Scale Discovery). The standard curve for each cytokine was used to convert the electrochemiluminescent signal into pg of protein per mL.

GSK3β kinase = GSK3β kinase (Homo sapiens (Human), UniProt P49841); assay: GSK3β kinase assay (Ser/Thr 09 peptide Z-lyte FRET); assay type: biochemical
[1] = system: SW480 colon carcinoma cells; assay: Cell viability assay (CellTiter-Glo) in SW480 cells; assay type: cell-based, human; settings: for EC50: four days incubation
IL-6 in huPBMCs = assay: IL-6 inhibition in LPS-stimulated human peripheral blood mononuclear cells (HTRF); assay type: cell-based; settings: for EC50: LPS-stimulated (50 ng/mL) huPBMCs, 22 hours, dose-response starting from 10 μM; for percent in parentheses beside EC50 >10 μM: LPS-stimulated huPBMCs, given only where EC50 >10 μM (top concentration 10 μM)
Protocol: After 22 hour incubation, a mixture of anti-IL6 XL665 and anti-IL-6 Cryptate diluted in reconstitution buffer (Catalog #62IL6PEC, Cisbio Inc., Bedford, Mass.) was added to each well. […] All samples were processed in duplicate. […] EC50 was determined using software generated by Dotmatics Limited (Windhill Bishops Stortford Herts, UK) using the Levenberg-Marquardt 4 parameter fitting procedure with finite different gradients.

KC-GRO, BV-2 cells = assay: Secreted cytokines in Lipopolysaccharide-stimulated BV-2 mouse microglial cells: KC-GRO; assay type: cell-based; settings: LPS 250 ng/mL for 5 h
Protocol: as §1, §2, §3

[2] = system: Wnt activity (Sp5-Luc reporter, TCF/LEF binding sites) in SW480 colon carcinoma cells; assay: Screening assay for Wnt activity: Sp5-Luc reporter gene assay in SW480 cells; assay type: cell-based, human; settings: 36 to 48 hours
Protocol: The screening assay for Wnt activity is described as follows.
Following incubation, 15 μl of BriteLite Plus luminescence reagent (Perkin Elmer) was added to each well of the 384-well assay plates. The plates were placed on an orbital shaker for 2 min and then luminescence was quantified using the Envision (Perkin Elmer) plate reader.

DYRK1A kinase = DYRK1A kinase (Homo sapiens (Human), UniProt Q13627); assay: DYRK1A kinase assay (Ser/Thr 18 peptide Z-lyte FRET); assay type: biochemical
[3] = system: Tau phosphorylation at Ser396 (pSer396) in SH-SY5Y cells; assay: Tau phosphorylation (pSer396) assay in SH-SY5Y cells, ELISA/western blot; assay type: cell-based, human
Protocol: Two days before treatment, cells were seeded onto 96 well plates at 5×10^4 cells/well.
Wells were visually checked for cell death or change in morphology and supernatants were tested for cytotoxicity by measurement of lactate dehydrogenase release (LDH, CytoToxOne kit, Promega) if necessary.
Cells were lysed with RIPA buffer complemented with phosphatase and protease inhibitors then lysates were spun down at 12,000 g for 10 min to remove any cellular debris. Lysates are then either directly tested for pSer396 by ELISA (Life Technology, Kit KHB7031) or loaded on NuPage Bis-Tris gels for western blot analysis. Colorimetric detection of ELISA signal is performed by Cytation3 plate reader (Biotek) and the chemiluminescence signal for HRP-linked antibodies used in western blotting is detected using a Carestream Image Station. The same pSer396 antibody is used for detection of pTau in both assays.

TNFα, BV-2 cells = assay: Secreted cytokines in Lipopolysaccharide-stimulated BV-2 mouse microglial cells: TNFα; assay type: cell-based; settings: LPS 250 ng/mL for 5 h
Protocol: as §1, §2, §3

[4] = system: α-smooth muscle actin (αSMA) in LL29 cells; assay: Fibrosis assay: TGF-β1 treated primary human fibroblasts from IPF patients (LL29), αSMA staining; assay type: cell-based; settings: for EC50: LL29 cells treated with TGF-β1 (20 ng/mL), 4 days; for percent in parentheses beside EC50 >10 μM: LL29 cells treated with TGF-β1, given only where EC50 >10 μM (top concentration 10 μM)
[5] = system: secreted β-amyloid 40 (Aβ40) peptide, SH-SY5Y-APP cells; assay: Secreted β-amyloid 40 peptide assay in APP overexpressing SH-SY5Y-APP cells; assay type: cell-based; settings: Homo sapiens, overnight (16-18 hours)
Protocol: Representative compounds were screened using the cell-based assay procedure for secreted β-amyloid 40 (Aβ340) peptide in an APP overexpressing cell line described below.
SH-SY5Y cells were infected with lentivirus to overexpress amyloid (A4) beta precursor protein (APP), hereafter referred to as the SH-SY5Y-APP cells. […] Culture medium was changed 18 h post-transfection before a first batch of viral supernatant was then harvested at 42 h post-transfection. Culture medium was replenished once more before a second batch of viral supernatant was harvested 66 h post-transfection.
SH-SY5Y cells were seeded onto 6-well plates at 5.0×10^5 cells/well and incubated overnight at 37° C. Cells were then infected with viral supernatant at concentrations ranging from 10%→100% viral supernatant (diluted in Opti-MEM as appropriate), with 10 μg/mL Polybrene added for permeability (H9268, Sigma). […]
The cell assay procedure start 18 h prior to treatment, as SH-SY5Y-APP cells were seeded onto 96-well plates at 2.0×10^4 cells/well. […] The original plates with seeded cells were tested for cytotoxicity by measure of adenosine triphosphate (ATP) release by adding CellTiter-Glo® diluted 1:4 in distilled water (G7573, Promega) and transferring lysed cells to a completely black 96-well plate to be read with the Cytation3. […]

[6] = GSK3β kinase Z-lyte assay, 46 μM ATP, one hour at room temperature, text calls values IC50
[7] = DYRK1A kinase Z-lyte assay, 30 μM ATP, one hour at room temperature, text calls values IC50
[8] = overnight (16-18 h) exposure, pSer396 Tau ELISA, read-out: pSer396 Tau EC50
[9] = Homo sapiens, overnight (16-18 h) exposure, pSer396 Tau ELISA, read-out: pSer396 Tau EC50
[10] = Homo sapiens, Fibroblast, 96 h, dose-response 10 μM to 0.94 nM

GSK3β kinase, sequence (P49841 whole entry): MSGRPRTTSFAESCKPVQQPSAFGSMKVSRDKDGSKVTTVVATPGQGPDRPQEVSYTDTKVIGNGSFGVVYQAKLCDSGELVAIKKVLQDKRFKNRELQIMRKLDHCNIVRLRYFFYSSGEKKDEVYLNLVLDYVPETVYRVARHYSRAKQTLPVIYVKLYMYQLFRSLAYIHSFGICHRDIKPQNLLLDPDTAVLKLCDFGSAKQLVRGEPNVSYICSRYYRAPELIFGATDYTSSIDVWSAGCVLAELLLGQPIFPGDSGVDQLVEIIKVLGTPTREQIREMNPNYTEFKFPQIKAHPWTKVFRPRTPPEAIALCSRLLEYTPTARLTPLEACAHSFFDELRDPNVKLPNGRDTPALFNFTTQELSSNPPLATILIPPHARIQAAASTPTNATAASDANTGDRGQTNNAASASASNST

Molecule: 1-Isobutyl-N-(6-(5-methyl-1,3,4-oxadiazol-2-yl)isoquinolin-3-yl)piperidine-4-carboxamide [Compound 1020]
EC50 (IL-6, BV-2 cells): 87 nM | EC50 (GSK3β kinase; [6]): 13 nM | EC50 [1]: 1030 nM | EC50 (IL-6 in huPBMCs): 1180 nM | EC50 (KC-GRO, BV-2 cells): 708 nM | EC50 [2]: 1140 nM | EC50 (DYRK1A kinase; [7]): 10.4 nM | EC50 [3, 8]: 49 nM | EC50 (TNFα, BV-2 cells): 597 nM | EC50 ([4]; dose-response 10 μM to […]): > 10000 nM | percent in parentheses beside EC50 >10 μM [4]: 30.6%

Molecule: Cn1cncc1-c1ccc2cnc(NC(=O)C3C(C)(C)C3(C)C)cc2c1 [Compound 269, 2,2,3,3-Tetramethyl-N-[6-(3-methylimidazol-4-yl)-3-isoquinolyl]cyclopropanecarboxamide]
IC50 [5]: > 10000 nM

Molecule: Cn1cc(-c2ccc3cnc(NC(=O)C4C(C)(C)C4(C)C)cc3c2)nn1 [Compound 277, 2,2,3,3-Tetramethyl-N-(6-(1-methyl-1H-1,2,3-triazol-4-yl)isoquinolin-3-yl) cyclopropane-1-carboxamide]
percent in parentheses beside EC50 >10 μM (IL-6 in huPBMCs): 4.0%

EC50 ([1]; Homo sapiens, 96 h): 751 nM | EC50 (IL-6 in huPBMCs; Homo sapiens, PBMC): 396 nM | EC50 ([2]; Homo sapiens): 578 nM | EC50 [3, 9]: 163 nM
Molecule: C[C@H](F)CN1CCC(C(=O)Nc2cc3cc(-c4cnn(C)c4)ccc3cn2)CC1 [Compound 311, (S)-1-(2-Fluoropropyl)-N-(6-(1-methyl-1H-pyrazol-4-yl)isoquinolin-3-yl) piperidine-4-carboxamide]
EC50 [4, 10]: 76 nM

Molecule: Cn1cc(-c2ccc3cnc(NC(=O)CN4C5CCC4COC5)cc3c2)cn1 [Compound 347, 2-(3-Oxa-8-azabicyclo[3.2.1]octan-8-yl)-N-(6-(1-methyl-1H-pyrazol-4-yl)isoquinolin-3-yl)acetamide]
percent in parentheses beside EC50 >10 μM (IL-6 in huPBMCs): 4.5%

Molecule: Cn1cc(-c2ccc3cnc(NC(=O)CN4C5CCC4CC5)cc3c2)nn1 [Compound 513, 2-(7-Azabicyclo[2.2.1]heptan-7-yl)-N-(6-(1-methyl-1H-1,2,3-triazol-4-yl)isoquinolin-3-yl)acetamide]
percent in parentheses beside EC50 >10 μM (IL-6 in huPBMCs): 14.5%

Molecule: Cc1nnc(-c2ccc3cnc(NC(=O)CN4C5CCC4CC5)cc3c2)s1 [Compound 959, 2-(7-Azabicyclo[2.2.1]heptan-7-yl)-N-(6-(5-methyl-1,3,4-thiadiazol-2-yl)isoquinolin-3-yl)acetamide]
percent in parentheses beside EC50 >10 μM (IL-6 in huPBMCs): 6.1%

Molecule: Cc1nnc(-c2ccc3cnc(NC(=O)CN4C5CCC4COC5)cc3c2)s1 [Compound 962, 2-(3-Oxa-8-azabicyclo[3.2.1]octan-8-yl)-N-(6-(5-methyl-1,3,4-thiadiazol-2-yl)isoquinolin-3-yl)acetamide]
percent in parentheses beside EC50 >10 μM (IL-6 in huPBMCs): 9.6%

Molecule: CO[C@H]1CC[C@@H](C(=O)Nc2cc3cc(-c4nnc(C)s4)ccc3cn2)CC1 [Compound 1001, cis-4-Methoxy-N-(6-(5-methyl-1,3,4-thiadiazol-2-yl)isoquinolin-3-yl) cyclohexane-1-carboxamide]
inhibition at 10 µM (IL-6 in huPBMCs; Homo sapiens, PBMC, read-out: percent in parentheses beside EC50 >10 μM): 49.7%

Molecule: CC(C)CN1CCC[C@@H](C(=O)Nc2cc3cc(-c4cnn5c4CN(CCF)CC5)ccc3cn2)C1 [Compound 1002, (R)—N-(6-(5-(2-Fluoroethyl)-4,5,6,7-tetrahydropyrazolo[1,5-a]pyrazin-3-yl)isoquinolin-3-yl)-1-isobutylpiperidine-3-carboxamide]
percent in parentheses beside EC50 >10 μM [4]: 27.5%

EC50 (GSK3β kinase; [6]): 83 nM | EC50 ([1]; Homo sapiens, 96 h): 922 nM | EC50 (IL-6 in huPBMCs; Homo sapiens, PBMC): 1260 nM | EC50 ([2]; Homo sapiens): 1130 nM | EC50 (DYRK1A kinase; [7]): 2.4 nM | EC50 [3, 9]: 435 nM
Molecule: CN1CCN(C[C@H]2CC[C@H](C(=O)Nc3cc4cc(-c5cnco5)ccc4cn3)CC2)CC1 [Compound 1007, trans-4-((4-methylpiperazin-1-yl)methyl)-N-(6-(oxazol-5-yl)isoquinolin-3-yl)cyclohexane-1-carboxamide]
EC50 [4, 10]: 942 nM

EC50 [1]: > 10000 nM | EC50 (IL-6 in huPBMCs): > 10000 nM | percent in parentheses beside EC50 >10 μM (IL-6 in huPBMCs): 10.4% | EC50 [2]: 2540 nM | EC50 [3, 8]: 319 nM
Molecule: Cc1nnc(-c2ccc3cnc(NC(=O)CN4CCCOCC4)cc3c2)s1 [Compound 1049, N-(6-(5-Methyl-1,3,4-thiadiazol-2-yl)isoquinolin-3-yl)-2-(1,4-oxazepan-4-yl) acetamide]
percent inhibition at 10 μM ([1]; at 10 μM, given for EC50 of >10 μM): 31.3%

EC50 (IL-6, BV-2 cells; Mus musculus): 14 nM | EC50 (GSK3β kinase): 16 nM | EC50 ([1]; Homo sapiens, 96 h): 8390 nM | EC50 (IL-6 in huPBMCs; Homo sapiens, PBMC): 6470 nM | EC50 ([2]; Homo sapiens): 738 nM | EC50 (DYRK1A kinase): 7.6 nM | EC50 [3, 9]: 91 nM
Molecule: Cn1cc(-c2ccc3cnc(NC(=O)C4CCN(CC(C)(C)O)CC4)cc3c2)nn1 [Compound 1070, 1-(2-Hydroxy-2-methylpropyl)-N-(6-(1-methyl-1H-1,2,3-triazol-4-yl)isoquinolin-3-yl)piperidine-4-carboxamide]

Molecule: Cn1cc(-c2ccc3cnc(NC(=O)C45CCN(CC4)CC5)cc3c2)cn1 [Compound 1071, N-(6-(1-Methyl-1H-pyrazol-4-yl)isoquinolin-3-yl)quinuclidine-4-carboxamide]
percent in parentheses beside EC50 >10 μM (IL-6 in huPBMCs): 8.8%

Molecule: CCN1/C(=C/C(C)=O)Sc2ccc(O)cc21 [Indy, reference compound]
EC50 ([3]; control compounds, read-out: EC50 in the Tau assay): > 10000 nM
